Literature values as cited in patent publication US12121514B2, “Nonselective metabotropic glutamate receptor activators for treatment of attention deficit disorder and 22Q syndrome” (THE CHILDREN'S HOSPITAL OF PHILADELPHIA, priority 2015, dated 2024).

Experiments:
[1] = test system: group I and group II/III mGluRs; conditions: in vitro studies; cited from earlier work
[2] = test system: adenylate cyclase activity through group I, II and III mGluRs; conditions: cited from earlier work
pediatric ADHD subjects = conditions: cited from earlier work

Row | SMILES | stimulation of mGluRs [1] | adenylate cyclase activity through group I mGluRs [2] | adenylate cyclase activity through group II and III mGluRs [2] | ADHD symptoms compared to a placebo control (pediatric ADHD subjects)
1 | O=C1CC[C@H](C(=O)N2CCCCC2)N1 [Fasoracetam, fasoracetam] | can stimulate both group I and group II/III mGluRs | may stimulate adenylate cyclase activity | may also inhibit adenylate cyclase activity | –
2 | NC(=O)CN1CCCC1=O [piracetam] | – | – | – | increase ADHD symptoms
